Reference: patent US4401822A, “Derivatives of 4-amino-5-alkyl sulphonyl orthoanisamides” (Societe de'Etudes Scientifiques et Industrielles de …, priority 1978, dated 1983)
Entries after “also recorded” stand apart in the source; their conditions may differ. Counter-ions that a name gives are not always drawn. Like-named read-outs stand apart in the source and are kept apart here.

Experiments:
apomorphine = assay: antiemetic power relative to apomorphine, dogs, method of Chen and Ensor; format: in vivo, dog; settings: s.c. 30 minutes before apomorphine 100 μg/kg s.c.; for ED50: Canis lupus familiaris, sc, read-out: Antiapomorphine ED50 in the dog
Procedure: The compounds of the invention have undergone other pharmacodynamic tests, and in particular their antiemetic power relative to apomorphine has been measured.
The test has been carried out on dogs by the method of Chen and Ensor.
The compounds of the invention are administered subcutaneously, 30 minutes before the apomorphine, which is administered subcutaneously in a dose of 100 μg/kg.

serotonin [1] = assay: antiserotonin action in connection with stomach ulceration in the rat; format: in vivo; settings: sc
Procedure: The antiserotonin action in connection with stomach ulceration has been studied in the rat under the following conditions:
30 mg/kg of serotonin is administered subcutaneously to female rats in two stages, with an interval of 16 hours. The product being studied is administered subcutaneously at the same time as the serotonin, in two stages with increasing doses. A group of 30 animals is used for each dose and a group of 60 animals is used as the control. The animals are sacrificed 22 hours after the first injection of serotonin, and their stomachs are taken out and examined. The percentage protection for each dose studied is determined, then the DE50, the dose protecting 50% of the animals, from gastric ulceration, is measured graphically.

[2] = acute toxicity in mice (LD50); format: in vivo; settings: mouse, in vivo, male mouse
Excerpt: (§1) The acute toxicity of the compounds according to the invention has been studied in mice. The lethal doses 50 are set out in the table which follows:
(§2) LD50 DETERMINED IN THE MALE MOUSE -

[3] = tested on: patients suffering from migraine; assay: clinical treatment of migraine; format: in vivo; settings: single patients, 100-300 mg per day
Procedure: Compound (1) was administered in a dose of three tablets per day (300 mg) to a patient suffering from frequent migraines; these obliged hereto interrupt any professional activity for three or four days per month.
Compound (1) was administered in a daily dose of 300 mg taken in three portions, to two twin brothers who suffered each month from attacks of migraine accompanied by vomiting.
Compound (2) was administered continuously, in doses of two tablets per day (200 mg), to a person who had suffered from attacks of migraine for four years. The attacks had not responded to curative treatment (ergotamine and caffeine) or preventive treatment.
Compound (2) was administered in doses of three tablets per day (300 mg) to a person suffering from quasi permanent occipital cephalalgia and several times a week from attacks of migraine with right hemicrania, photophobia and nausea.

[4] = tested on: patients suffering from sudden attacks of delirium; assay: clinical treatment of sudden attacks of delirium; format: in vivo; settings: 350 mg per day oral or intramuscular
Procedure: 41 patients suffering from sudden attacks of delirium were treated with 350 mg per day of compound (2), administered orally or by intramuscular injection.

[5] = tested on: patients suffering from catatonic hebephrenia; assay: clinical treatment of catatonic hebephrenia; format: in vivo; settings: 100-300 mg daily oral or intramuscular, of 21 patients
Procedure: 21 patients suffering from catatonic hebephrenia were treated with compound (1), a daily dose of 100-300 mg being given orally or by intramuscular injection. In 13 cases removal of inhibitions was observed, sometimes with a reversal of mood, which made it possible to make contact with the patient.

serotonin [6] = assay: antiserotonin action in respect of bronchospasm in the guinea-pig, method of Konzett and Rossler; format: in vivo; settings: serotonin 20 μg/kg intravenously, anaesthetised guinea-pigs
Procedure: The antiserotonin action in respect of bronchospasm has been studied in the guinea-pig under the following conditions:
The bronchospasm is recorded by the method of Konzett and Rossler, which comprises connecting the trachea of the guinea-pig to an artificial respiration pump, which passes a constant volume of air, slightly greater than the respiratory capacity of the animal, into the bronchi at a physiological rhythm. The excess quantity of air, which varies according to the diameter of the bronchi, is discharged to a special manometric device which measures the volume of air at each inhalation.
The serotonin is administered intravenously to the guinea-pigs in a dose of 20 μg/kg. The guinea-pigs have previously been anaesthetised with ethyl carbamate, thus producing a bronchial spasm.
The product to be studied is then administered intravenously, after which the administration of serotonin is repeated one minute later. The percentage inhibition of bronchospasm is measured for each dose of the product to be studied, then the antiserotonin DE50 relative to bronchospasm in the guinea-pig is determined.

[7] = tested on: alcoholic or heroin addicts; format: in vivo; settings: 200 mg per day oral or intramuscular, of 30 patients
Procedure: Thus for example, 200 mg per day of compound (1) was administered orally or by intramuscular injection to 30 patients who were alcoholic or heroin addicts. In 28 cases the product acted rapidly and the drug addicts asked for more. Its effect is different from that of opiates and the main antalgics.

male rats = assay: cataleptic action in male rats, subcutaneous; format: in vivo, rat; settings: 200 mg/kg subcutaneously, after 7 hours
Procedure: The cataleptic action has been studied as follows.
Benzamides are administered subcutaneously to male rats. The criterion taken for the cataleptic state is that the animal should be immobile for 30 seconds with its rear limbs apart, arranged carefully on wooden cubes 4 cm high, which thus puts the animal in an unaccustomed and uncomfortable position.
The cataleptic action is measured when the effect is at its maximum, i.e. 5 to 7 hours after the substance has been administered.

male mouse = assay: acute toxicity in mice (LD50); format: in vivo
Excerpt: as §1, §2

[8] = Rattus norvegicus, 22 h, female rats, serotonin 30 mg/kg s.c. in two stages, dose protecting 50% of the animals, read-out: Antiserotonin ED50 in respect of stomach ulceration, in the rat

## CCS(=O)(=O)c1cc(C(=O)NCC2CCCN2C)c(OC)cc1N (stereo not drawn) [Compound 2, N-[1-methyl 2-pyrrolidylmethyl]2-methoxy 4-amino 5-ethylsulphonyl benzamide]
apomorphine
  ED50: 0.0008 mg/kg
Serotonin [1]; [8]
  ED50: 0.4 mg/kg
[2]; ip, I.P.
  LD50: 210 to 217 mg/kg
[2]; iv
  LD50: 56 to 57 mg/kg
[2]; po
  LD50: 1330 mg/kg
[2]; sc, subcutaneous
  LD50: 280 mg/kg
[3]
  effect on migraine (in words): their intensity is decreasing; also recorded: From the third week the migraine attacks disappeared completely
[4]; 41 patients
  antidepressive action: there was an antidepressive action
[4]; 41 patients, all cases
  tolerance: excellent tolerance in all cases
[4]; of 41 patients
  cases with a very good antipsychotic action in sudden attacks of delirium: 38 cases

## CCS(=O)(=O)c1cc(C(=O)NCC2CCCN2C)c(OC)cc1N (single isomer, unassigned) [Compound 6, Dextrorotatory N-1-methyl 2-pyrrolidylmethyl 2-methoxy 4-amino 5-ethylsulphonyl benzamide]
apomorphine
  ED50: 0.008 mg/kg
Serotonin [1]; [8]
  ED50: 0.34 to 0.44 mg/kg
[2]; ip, I.P.
  LD50: 304 to 322 mg/kg
[2]; iv
  LD50: 62 to 64 mg/kg
[2]; po
  LD50: 1190 to 1260 mg/kg
[2]; sc, subcutaneous
  LD50: 380 to 396 mg/kg

## CCN1CCCC1CNC(=O)c1cc(S(C)(=O)=O)c(N)cc1OC (stereo not drawn) [Compound 8, N-[1-ethyl 2-pyrrolidylmethyl]2-methoxy 4-amino 5-methylsulphonyl benzamide]
apomorphine
  ED50: 0.0027 mg/kg
Serotonin [1]; [8]
  ED50: 3 mg/kg
[2]; ip, I.P.
  LD50: 234 to 238 mg/kg
[2]; iv
  LD50: 46.5 to 50 mg/kg
[2]; po
  LD50: 625 to 660 mg/kg
[2]; sc, subcutaneous
  LD50: 208 to 225 mg/kg

## C=CCN1CCCC1CNC(=O)c1cc(S(=O)(=O)CC)c(N)cc1OC (stereo not drawn) [Compound 3, N-[1-allyl 2-pyrrolidylmethyl]2-methoxy 4-amino 5-ethylsulphonyl benzamide]
apomorphine
  ED50: 0.00065 mg/kg
Serotonin [1]; [8]
  ED50: 0.65 mg/kg
[2]; ip, I.P.
  LD50: 216 to 217 mg/kg
[2]; iv
  LD50: 106 to 107 mg/kg
[2]; po
  LD50: 2230 to 2380 mg/kg
[2]; sc, subcutaneous
  LD50: 312 to 330 mg/kg

## COc1cc(N)c(S(C)(=O)=O)cc1C(=O)NCC1CCCN1C (stereo not drawn) [Compound 9, N-[1-methyl 2-pyrrolidylmethyl]2-methoxy 4-amino 5-methylsulphonyl benzamide]
apomorphine
  ED50: 0.007 mg/kg
Serotonin [1]; [8]
  ED50: 1.14 mg/kg
[2]; ip, I.P.
  LD50: 200 to 216 mg/kg
[2]; iv
  LD50: 54 mg/kg
[2]; sc, subcutaneous
  LD50: 202 mg/kg

## CCN1CCCC1CNC(=O)c1cc(S(=O)(=O)CC)c(N)cc1OC (stereo not drawn) [Compound 1, N-(1-ethyl 2-pyrrolidylmethyl) 2-methoxy 4-amino 5-ethylsulphonyl benzamide]
[5]
  cases with removal of inhibitions: 13 cases
Serotonin [6]
  Antiserotonin ED50 relative to bronchospasm in the guinea-pig: 74 μg/kg/IV
apomorphine
  ED50: 0.00029 mg/kg
[7]
  cases in which the product acted rapidly: 28 cases
Serotonin [1]; [8]
  ED50: 1 mg/kg
[2]; ip, I.P.
  LD50: 175 to 180 mg/kg
[2]; iv
  LD50: 56 to 60 mg/kg
[2]; po
  LD50: 1020 to 1050 mg/kg
[2]; sc, subcutaneous
  LD50: 224 to 250 mg/kg
[3]
  effect on migraine (in words): The migraines decreased from the first month and disappeared altogether from the second month; also recorded: For one of the twins the migraine disappeared immediately; also recorded: For the other the pain disappeared from the second method and only a few attacks of nausea persisted

## CCN1CCCC1CNC(=O)c1cc(S(=O)(=O)CC)c(N)cc1OC (single isomer, unassigned) [Compound 5, Levorotatory tartrate of N-[1-ethyl 2-pyrrolidylmethyl]2-methoxy 4-amino 5-ethylsulphonyl benzamide]
Male rats
  cataleptic state, % of the animals: 30%
apomorphine
  Antiapomorphine ED50 in the dog: 0.28 μg/kg/s.c.
Male mouse; I.P.
  LD50: 122 to 128 mg/kg
Male mouse; intravenous
  LD50: 44.8 mg/kg
Male mouse; oral
  LD50: 1109 to 1160 mg/kg
Male mouse; subcutaneous
  LD50: 137 to 149 mg/kg

## CCN1CCCC1CNC(=O)c1cc(S(N)(=O)=O)ccc1OC (stereo not drawn) [sulpiride, reference compound]
Serotonin [1]; rat, comparator value in text, read-out: antiserotonin ED50 relative to stomach ulceration in the rat (comparator, text)
  ED50: 110 mg/kg

## CCN1CCCC1CNC(=O)c1cc(S(=O)(=O)CC)c(N)cc1OC (single isomer, unassigned) [Compound 4, Dextrorotatory tartrate of N-[1-ethyl 2-pyrrolidylmethyl]2-methoxy 4-amino 5-ethylsulphonyl benzamide]
Serotonin [6]
  Antiserotonin ED50 relative to bronchospasm in the guinea-pig: 106 μg/kg/IV
apomorphine
  Antiapomorphine ED50 in the dog: 12 μg/kg/s.c.
Serotonin [1]; [8]
  ED50: 0.46 mg/kg
[2]; ip, I.P.
  LD50: 188 mg/kg
[2]; iv
  LD50: 39.8 mg/kg
[2]; po
  LD50: 1560 to 1620 mg/kg
[2]; sc, subcutaneous
  LD50: 254 to 263 mg/kg

## CCCS(=O)(=O)c1cc(C(=O)NCC2CCCN2CC)c(OC)cc1N (stereo not drawn) [Compound 7, N(1ethyl 2pyrrolidylmethyl) 2methoxy 4amino 5propylsulphonyl benzamide]
apomorphine
  ED50: 0.0016 mg/kg
Serotonin [1]; [8]
  ED50: 3.2 mg/kg
[2]; ip, I.P.
  LD50: 160 to 165 mg/kg
[2]; iv
  LD50: 43 to 46.8 mg/kg
[2]; po
  LD50: 570 to 629 mg/kg
[2]; sc, subcutaneous
  LD50: 140 to 144 mg/kg
